Results from US11083717B2, “Compositions and methods for drug sensitization of parasites” (The Texas A&M University System, priority 2015, dated 2021).
Converted amounts (≈) assume the structure as drawn. Where two headings read alike, the source gives them in different places.

Columns and labels:
[1] = tested on: Cryptosporidium parvum (CP); experiment: Cell culture model of Cryptosporidium parvum infection in HCT-8 cells, real-time qRT-PCR; format: cell-based; conditions: Cryptosporidium parvum; for MIC50: 44 h; for inhibition at 0.25 µM: HCT-8, @0.25 uM
Description: Fresh oocysts of CP (Iowa strain) were purchased from Bunch Grass Farm (Deary, Id.). Oocysts were further purified by a Percoll-based gradient centrifugation method and surface sterilized with 10% bleach for 7 min on ice, followed by washes with phosphate-buffered saline (PBS). An ileocecal colorectal adenocarcinoma cell line (HCT-8, ATCC #CCL-244) was used to host the growth of CP in vitro. One day before the inoculation, HCT-8 cells were seeded in 96-well plates (2.5×10^4/well) containing RPMI 1640 medium supplied with 10% fetal bovine serum (200 μL medium/well in all experiments) and allowed to grow overnight at 37° C. under 5% CO2 atmosphere until they reached ˜90% confluence. For drug testing, host cells were infected with 1.5×10^4 oocysts per well (ratio ˜1:3). After inoculation, parasite oocysts were allowed to undergo excystation and invasion into host cells for 3 h at 37° C. Free parasites and oocyst walls in the medium were removed from the plates by an exchange of the culture medium. Drugs at specified concentrations were added into the culture at this time point (immediately after the medium exchange). Parasite-infected cells were then incubated at 37° C. for additional 41 h (total 44 h infection time). At least two independent experiments were conducted for every experimental condition, each including two replicates drugs and eight replicates for negative controls.
Plates containing HCT-8 cells infected with CP for 44 h were first centrifuged for 10 min at 1000×g to ensure that free merozoites in the medium were firmly settled on the bottom of the wells. Medium was removed, followed by two gentle washes with PBS. For extracting total RNA, 200 μL of ice-cold Bio-Rad iScript qRT-PCR sample preparation reagent (lysis buffer) (Bio-Rad Laboratories, Hercules, Calif.) was added into each well. Plates were sealed with heat sealing films and subjected to vortex for 20 min. Plates were then incubated at 75° C. for 15 min, followed by centrifugation (5 min, 2000×g) to settle down cell debris. Supernatants were used immediately in subsequent qRT-PCR reactions or the plates were stored at −80° C. until use.
The levels of 18S rRNA transcripts from CP and host cells (referred to as Cp18S and Hs18S) were detected by real-time qRT-PCR method using qScrip™ one-step SYBR green qRT-PCR kit (Quanta Biosciences, Gaithersburg, Md.). Cell lysates prepared as described above were diluted by 100 and 2000 folds for detecting Cp18S and Hs18S transcripts, respectively. Reactions were performed in hard-shell 384-well skirted PCR plates (Bio-Rad Laboratories, Hercules, Calif.) (10 μL/well) containing 3 μL diluted cell lysate, 5 μL one-step SYBR green master mix, 0.2 μl RT master mix and the following primers: Cp18S-1011F and Cp18S-1185R primer pair for Cp18S rRNA, and Hs18S-1F and Hs18S-1R primer pair for Hs18S rRNA. Hs18S levels were used as controls and for normalization.
Real-time qRT-PCR reactions were performed by a Bio-Rad CFX384 Touch Real-Time PCR Detection System. The reactions started with synthesizing cDNA at 50° C. for 20 min, followed by 5 min at 95° C. to denature RNA-cDNA hybrids and deactivate reverse transcriptase, and 40 two-temperature thermal cycles of PCR amplification at 95° C., 10 sec and 58° C., 30 sec. At the end of PCR amplification, melting curve analysis was performed between 65° C. to 95° C. At least 2 technical replicates were included in qRT-PCR reactions for each sample.
The % inhibition (% inh @ (μM)) was calculated using a standard curve.

[2] = tested on: S. cerevisiae; experiment: in vitro; conditions: Saccharomyces cerevisiae
[3] = tested on: human fibroblast; experiment: in vitro
[4] = CP in HCT-8 cells, 44 h infection, 50% reduction of parasite growth vs control, NA: not active, read-out: MIC50
[5] = HCT-8, @10 uM, read-out: % inh @

CC(C(=O)N1CCNCC1)c1ccc(Oc2nc3cc(F)c(F)cc3s2)cc1 (centres unmarked) [NZ-489, 2-{4-[(5,6-difluoro-1,3-benzothiazol-2-yl)oxy]phenyl}-1-(piperazin-1-yl)propan-1-one]
MIC50 [1, 4]: < 0.25 µM
inhibition at 0.25 µM [1]: 68%
concentrations at which not toxic, S. cerevisiae cytotoxicity testing [2]: ≥ 100 µM
concentrations at which not toxic, human fibroblast cytotoxicity testing ([3]; human): ≥ 100 µM

NC(=O)Cc1ccc(Oc2nc3cc(F)c(F)cc3s2)cc1 [NZ-485, 2-{4-[(5,6-difluoro-1,3-benzothiazol-2-yl)oxy]phenyl}acetamide]
MIC50 [1, 4]: 1 to 4 µM (≈ 0.32 to 1.28 µg/mL)
concentrations at which not toxic, S. cerevisiae cytotoxicity testing [2]: ≥ 100 µM
concentrations at which not toxic, human fibroblast cytotoxicity testing ([3]; human): ≥ 100 µM

O=C(Cc1ccc(Oc2nc3cc(F)c(F)cc3s2)cc1)N1CCCCC1 [NZ-481, 2-{4-[(5,6-difluoro-1,3-benzothiazol-2-yl)oxy]phenyl}-1-(piperidin-1-yl)ethan-1-one]
MIC50 [1, 4]: 1 to 4 µM (≈ 0.388 to 1.55 µg/mL)
concentrations at which not toxic, S. cerevisiae cytotoxicity testing [2]: ≥ 100 µM
concentrations at which not toxic, human fibroblast cytotoxicity testing ([3]; human): ≥ 100 µM

O=C(O)Cc1ccc(Oc2nc3cc(F)c(F)cc3s2)cc1F [NZ-440, 2-{4-[(5,6-difluoro-1,3-benzothiazol-2-yl)oxy]-2-fluorophenyl}acetic acid]
MIC50 [1, 4]: ~10 µM (≈ 3.39 µg/mL)
inhibition at 10 µM [1, 5]: 53%
concentrations at which not toxic, S. cerevisiae cytotoxicity testing [2]: ≥ 100 µM
concentrations at which not toxic, human fibroblast cytotoxicity testing ([3]; human): ≥ 100 µM

CC(C(=O)N1CCN(C)CC1)c1ccc(Oc2nc3cc(F)c(F)cc3s2)cc1 (centres unmarked) [NZ-465, 2-{4-[(5,6-difluoro-1,3-benzothiazol-2-yl)oxy]phenyl}-1-(4-methylpiperazin-1-yl)propan-1-one]
MIC50 [1, 4]: < 0.25 µM
inhibition at 0.25 µM [1]: 68%
concentrations at which not toxic, S. cerevisiae cytotoxicity testing [2]: ≥ 100 µM
concentrations at which not toxic, human fibroblast cytotoxicity testing ([3]; human): ≥ 100 µM

CC(C(=O)N1CCNCC1)c1ccc(Oc2nc3ccc(F)cc3s2)cc1 (centres unmarked) [NZ-477, 2-{4-[(6-fluoro-1,3-benzothiazol-2-yl)oxy]phenyl}-1-(piperazin-1-yl)propan-1-one]
MIC50 [1, 4]: 0.05 to 0.17 µM (≈ 0.0193 to 0.0655 µg/mL)
concentrations at which not toxic, S. cerevisiae cytotoxicity testing [2]: ≥ 100 µM
concentrations at which not toxic, human fibroblast cytotoxicity testing ([3]; human): ≥ 100 µM

CNC(=O)Cc1ccc(Oc2nc3cc(F)c(F)cc3s2)cc1F [NZ-411, 2-{4-[(5,6-difluoro-1,3-benzothiazol-2-yl)oxy]-2-fluorophenyl}-N-methylacetamide]
inhibition at 10 µM ([1]; HCT-8, read-out: % inh @ (μM)): 75.7%
concentrations at which not toxic, S. cerevisiae cytotoxicity testing [2]: ≥ 100 µM
concentrations at which not toxic, human fibroblast cytotoxicity testing [3]: ≥ 100 µM

CN(C)CCNC(=O)Cc1ccc(Oc2nc3ccc(F)cc3s2)cc1 [NZ-425, N-[2-(dimethylamino)ethyl]-2-{4-[(6-fluoro-1,3-benzothiazol-2-yl)oxy]phenyl}acetamide]
MIC50 [1, 4]: 0.25 to 0.5 µM (≈ 0.0934 to 0.187 µg/mL)
concentrations at which not toxic, S. cerevisiae cytotoxicity testing [2]: ≥ 100 µM
concentrations at which not toxic, human fibroblast cytotoxicity testing ([3]; human): ≥ 100 µM

CN1CCN(C(=O)Cc2ccc(Oc3nc4ccc(Cl)cc4s3)cc2)CC1 [NZ-464, 2-{4-[(6-chloro-1,3-benzothiazol-2-yl)oxy]phenyl}-1-(4-methylpiperazin-1-yl)ethan-1-one]
MIC50 [1, 4]: 0.05 to 0.27 µM (≈ 0.0201 to 0.109 µg/mL)
concentrations at which not toxic, S. cerevisiae cytotoxicity testing [2]: ≥ 100 µM
concentrations at which not toxic, human fibroblast cytotoxicity testing ([3]; human): ≥ 100 µM

CNC(=O)Cc1c(F)cc(Oc2nc3cc(F)c(F)cc3s2)cc1F [NZ-450, 2-{4-[(5,6-difluoro-1,3-benzothiazol-2-yl)oxy]-2,6-difluorophenyl}-N-methylacetamide]
MIC50 [1, 4]: ~2 µM (≈ 0.741 µg/mL)
concentrations at which not toxic, S. cerevisiae cytotoxicity testing [2]: ≥ 100 µM
concentrations at which not toxic, human fibroblast cytotoxicity testing ([3]; human): ≥ 100 µM

NC(=O)Cc1ccc(Oc2nc3ccc(Cl)cc3s2)cc1 [NZ-505, 2-{4-[(6-chloro-1,3-benzothiazol-2-yl)oxy]phenyl}acetamide]
MIC50 [1, 4]: ~0.25 µM (≈ 0.0797 µg/mL)
concentrations at which not toxic, S. cerevisiae cytotoxicity testing [2]: ≥ 100 µM
concentrations at which not toxic, human fibroblast cytotoxicity testing ([3]; human): ≥ 100 µM

CN1CCN(C(=O)Cc2ccc(Oc3nc4cc(F)c(F)cc4s3)cc2)CC1 [NZ-409, 2-{4-[(5,6-difluoro-1,3-benzothiazol-2-yl)oxy]phenyl}-1-(4-methylpiperazin-1-yl)ethan-1-one]
MIC50 [1, 4]: ~0.44 µM (≈ 0.178 µg/mL)
concentrations at which not toxic, S. cerevisiae cytotoxicity testing [2]: ≥ 100 µM
concentrations at which not toxic, human fibroblast cytotoxicity testing ([3]; human): ≥ 100 µM

COC(=O)Cc1ccc(Oc2nc3cc(F)c(F)cc3s2)cc1 [NZ-398, methyl 2-{4-[(5,6-difluoro-1,3-benzothiazol-2-yl)oxy]phenyl}acetate]
MIC50 [1]: ~10 µM
inhibition at 10 µM ([1]; HCT-8, read-out: % inh @ (μM)): 50%
concentrations at which not toxic, S. cerevisiae cytotoxicity testing [2]: ≥ 100 µM
concentrations at which not toxic, human fibroblast cytotoxicity testing [3]: ≥ 100 µM

CC(C)NC(=O)Cc1ccc(Oc2nc3cc(F)c(F)cc3s2)cc1 [NZ-403, 2-{4-[(5,6-difluoro-1,3-benzothiazol-2-yl)oxy]phenyl)-N-(propan-2-yl)acetamide]
MIC50 [1, 4]: ~10 µM (≈ 3.62 µg/mL)
inhibition at 10 µM [1, 5]: 63%
concentrations at which not toxic, S. cerevisiae cytotoxicity testing [2]: ≥ 100 µM
concentrations at which not toxic, human fibroblast cytotoxicity testing ([3]; human): ≥ 100 µM

CC(C(=O)NC(CO)CO)c1ccc(Oc2nc3ccc(Cl)cc3s2)cc1 (centres unmarked) [NZ-371, 2-{4-[(6-chloro-1,3-benzothiazol-2-yl)oxy]phenyl}-N-(1,3-dihydroxypropan-2-yl)propanamide]
MIC50 [1, 4]: 0.15 to 0.23 µM (≈ 0.061 to 0.0936 µg/mL)
concentrations at which not toxic, S. cerevisiae cytotoxicity testing [2]: ≥ 100 µM
concentrations at which not toxic, human fibroblast cytotoxicity testing ([3]; human): ≥ 100 µM

CC(C)NC(=O)Nc1ccc(Oc2nc3ccc(Cl)cc3s2)cc1 [NZ-331, 1-{4-[(6-chloro-1,3-benzothiazol-2-yl)oxy]phenyl}-3-(propan-2-yl)urea]
inhibition at 0.05 µM ([1]; HCT-8, read-out: % inh @ (μM)): 36%
concentrations at which not toxic, S. cerevisiae cytotoxicity testing [2]: ≥ 100 µM
concentrations at which not toxic, human fibroblast cytotoxicity testing [3]: ≥ 100 µM

CNC(=O)Cc1c(F)cc(Oc2cnc3cc(Cl)ccc3n2)cc1F [NZ-460, 2-{4-[(6-chloroquinoxalin-2-yl)oxy]-2,6-difluorophenyl}-N-methylacetamide]
inhibition at 5 µM ([1]; HCT-8, @5 uM): 19%
concentrations at which not toxic, S. cerevisiae cytotoxicity testing [2]: ≥ 100 µM
concentrations at which not toxic, human fibroblast cytotoxicity testing ([3]; human): ≥ 100 µM

CONC(=O)C(C)c1ccc(Oc2cnc3cc(Cl)ccc3n2)cc1 (centres unmarked) [NZ-310, 2-{4-[(6-chloroquinoxalin-2-yl)oxy]phenyl}-N-methoxypropanamide]
inhibition at 10 µM [1, 5]: 83%
concentrations at which not toxic, S. cerevisiae cytotoxicity testing [2]: ≥ 100 µM
concentrations at which not toxic, human fibroblast cytotoxicity testing ([3]; human): ≥ 100 µM

CONC(=O)[C@@H](C)Oc1ccc(Oc2cnc3cc(Cl)ccc3n2)cc1 [NZ-295, (2R)-2-{4-[(6-chloroquinoxalin-2-yl)oxy]phenoxy}-N-methoxypropanamide]
inhibition at 10 µM [1, 5]: 61%
concentrations at which not toxic, S. cerevisiae cytotoxicity testing [2]: ≥ 100 µM
concentrations at which not toxic, human fibroblast cytotoxicity testing ([3]; human): ≥ 100 µM

NC(=O)Cc1ccc(Oc2nc3ccc(Cl)cc3s2)cc1F [NZ-500, 2-{4-[(6-chloro-1,3-benzothiazol-2-yl)oxy]-2-fluorophenyl}acetamide]
MIC50 [1, 4]: ~0.25 µM (≈ 0.0842 µg/mL)
concentrations at which not toxic, S. cerevisiae cytotoxicity testing [2]: ≥ 100 µM
concentrations at which not toxic, human fibroblast cytotoxicity testing ([3]; human): ≥ 100 µM

CNC(=O)C(C)c1ccc(Oc2nc3cc(F)c(F)cc3s2)cc1 (centres unmarked) [NZ-387, 2-{4-[(5,6-difluoro-1,3-benzothiazol-2-yl)oxy]phenyl}-N-methylpropanamide]
MIC50 [1, 4]: ~0.44 µM (≈ 0.153 µg/mL)
concentrations at which not toxic, S. cerevisiae cytotoxicity testing [2]: ≥ 100 µM
concentrations at which not toxic, human fibroblast cytotoxicity testing ([3]; human): ≥ 100 µM
